Test system: membrane potential of mitochondria
Conditions: in the presence of molecular hydrogen

## [HH] [hydrogen]
  signal of TMRE (membrane potential) reduced: about 10%
